Here are results for 5 compounds from paper PMC8408929, “Influence of osmolality on gastrointestinal fluid volume and drug absorption: potential impact on oral salt supplementation” (Journal of Pharmaceutical Health Care and Sciences, 2021).

Details of data set [1]: method as in not given. The note with it: low-permeability drugs; ref not given; cited from earlier work.
Data set [2] deals with rat intestine (jejunum, ileum and colon). Kind of data set: in situ rat intestinal closed loop method. The note with it: 30 min. The method, then: The in situ rat intestinal closed loop method was carried out as described previously. Male Wistar rats (7–8 weeks old; 250 ± 20 g body weight) were fasted overnight and anesthetized by intraperitoneal injection of a triple anesthetic combination (medetomidine, midazolam and butorphanol). The abdominal cavity was opened and an intestinal loop (jejunum, 10 cm; ileum, 10 cm; colon, 7 cm) was made by cannulation into both ends of the jejunum, ileum and colon with silicone tubing (i.d., 3 mm). The intestinal contents were washed out through the cannulas with saline. […] One mL of test compound solution (10 μM) was introduced into the intestinal loop and both ends of the loop were ligated. At the designated times (30 min), test compound solution in the loop was collected by flushing with air (for measuring the luminal concentration of test compound, Cout), and then made up to 10 mL with buffer solution (for measuring the amount of test compound, Xout). The volume of luminal water (mL) in each segment of intestine was calculated using the following equation: 1 Vwater=Xout/Cout where Vwater (mL) is the water volume in each segment of intestine, Cout is the luminal concentration of test compound (μM), and Xout is the amount of test compound (μmol). The fraction absorbed of test compound was calculated from the remaining amount of test compound in each intestinal loop. Final results were normalized to the surface area calculated from the radius and length of each segment of intestine. The radii of the small and large intestines reported by Fagerholm et al. were used (0.178 cm and 0.252 cm, respectively).
Concentrations of FD-4 were measured with a microplate fluorescence reader (VarioskanTM Flash 2.4; Thermo Fisher Scientific Inc., Kanagawa, Japan) at excitation/emission wavelengths of 492/515 nm.
An Agilent Eclitse plus (C18, 50 × 2.1 mm, 5 μm) was used as the analytical column. […] Analyst software version 1.4.2 (AB SCIEX) was used for data manipulation.

For a further data set, the system named is intestine. Set-up: method as in PMID 28450238. The note with it: administered in purified water vs isosmotic solution; cited from earlier work.

Regarding `Cc1ccccc1C(=O)Nc1ccc(C(=O)N2CCCC(O)c3cc(Cl)ccc32)c(C)c1` (stereo not shown) [tolvaptan], the “BCS Class” value in data set [1] was “Class IV”.

On to “fluorescein isothiocyanate-dextran 4000 [FD-4]”, for which the luminal concentration in data set [2] (colon, 10 μM dosed in hyperosmotic solution (10% NaCl)) came to 6.25 ± 0.15 µM; in data set [2] (colon, 10 μM dosed in purified water), 27.4 ± 2.0 µM; in data set [2] (ileum, 10 μM dosed in hyperosmotic solution (10% NaCl)) it was 6.47 ± 0.68 µM; in data set [2] (ileum, 10 μM dosed in purified water), 13.2 ± 0.7 µM; in data set [2] (jejunum, 10 μM dosed in hyperosmotic solution (10% NaCl)), 5.30 ± 0.31 µM; in data set [2] (jejunum, 10 μM dosed in purified water), 13.7 ± 0.8 µM.

As for `CC(C)NCC(O)COc1ccc(CC(N)=O)cc1` (stereo not shown) [atenolol], the “fraction absorbed, purified water compared with isosmotic solution” value in the data set with intestine is on record as “significantly greater”.

Take `NS(=O)(=O)c1cc(C(=O)O)c(NCc2ccco2)cc1Cl` [furosemide]: the “BCS Class” value in data set [1] is “Class IV”.

Take `Cc1cc(=O)n(-c2ccccc2)n1C` [antipyrine]: the “fraction absorbed, purified water compared with isosmotic solution” value in the data set on intestine is reported as “no significant difference”.
